These results are taken from US12161646B2, “Polycyclic carbamoylpyridone derivatives, pharmaceutical compositions and use thereof” (JIAXING ANDICON BIOTECH CO., LTD., priority 2018, dated 2024).

The test system of series [1] is influenza virus. The experiment in a line: CPE suppression effect confirmation test. In kind it is cell-based. As to conditions: for CPE inhibitory effect compared with S-033188A: relative to S-033188A; for EC50: unidentified influenza virus, 72 h, read-out: CPE_EC50.
Series [2] can be described thus: Bioavailability test. In kind it is in vivo, SD rats. As to conditions: for BA%: SD rats, from AUC of oral and intravenous administration; for half-life: SD, rat, in vivo, iv. Here is the method: Example 6: Bioavailability Test
<Experimental Materials and Methods for Oral Absorption Research>
• (1) Animals used: SD rats are used. • (2) Feeding conditions: SD rats were allowed to take in solid feed and purified water freely. • (3) Dosing amount and grouping setting: Oral or intravenous administration were performed at prescribed dosage. The groups were set as follows. (the dosage of each compound varied)
Oral administration 1 to 30 mg/kg (n=5 to 6)
Intravenous administration 0.5 to 10 mg/kg (n=5 to 6) • (4) Preparation of dosing solution: suspension was used for oral administration through intragastric administration. Solution was used for intravenous administration through tail vein. • (5) Evaluation items: Blood was collected overtime, and the concentrations of the drugs in plasma were determined by LC/MS/MS. • (6) Statistical analysis: For concentration changes in plasma, the area under the concentration-time curve (AUC) in plasma was calculated using the nonlinear least squares method, and the bioavailability (BA) was calculated from the AUC in the oral administration group and the intravenous administration group, and the elimination half-life of drug concentration in plasma through intravenous administration was counted.

A short description of series [3]: Detection of toxicity of samples to MDCK cells (alamarBlue). In kind it is cell-based. The note with it: dog, 48 hours incubation. The source says:
Example 9: Detection of Toxicity of Samples to MDCK Cells
The experiment uses alamarBlue® (Invitrogen) kit to detect the toxic effects of drugs on cells.
Experimental principle: The experiment uses alamarBlue® (Invitrogen) kit to detect the toxic effects of drugs on cells. AlamarBlue® is a redox indicator that produces changes in absorbance and fluorescent signals based on cellular metabolic activity. AlamarBlue® is freely soluble in water. After its oxidized form enters cells, it will be reduced by mitochondrial enzymes to produce measurable fluorescence and color changes. It is used for quantitative analysis of cell viability and cell proliferation, and for in vitro cytotoxicity studies. Normal cells with metabolic activity can convert the reagents to produce strong fluorescence and color changes.
Experimental procedure: MDCK cells were seeded in a 96-well cell culture plate, and cultured till cell attachment for later use. The drug was serially 3 times diluted from 2 times the highest test concentration to 8 gradients. The drug was added to the cells and cultured in a CO2 incubator at 37° C. […] The toxicity of the drug to cells is inversely proportional to the activity of the cells and is expressed as the activity of the cells. cell activity (%)=(drug group-blank control)/(cell control-blank control)*100 Calculation formula: […]
(Resazurin is reduced to fluorescent resorufin, in cell work by metabolically active cells.)

Series [4] has as its system A/WS/33, A/Victoria/3/75 or B/Maryland/1/59. In kind it is in vivo, BALB/cAnNCrlCrlj mice. The note with it: single oral administration, 50% lethal suppression, 14 days after infection.

SMILES strings stand for the structures.

Usually half-life stands for the time in which the quantity being followed falls by half. What is called CC50 is the concentration giving 50% cytotoxicity. Read a low CC50 as harm at low concentration. Turning to `[2H][C@]1(N2[C@@H]3COCCN3C(=O)c3c(O)c(=O)ccn32)c2ccccc2SCc2c1ccc(F)c2F` [1A], in series [1], the “CPE inhibitory effect compared with S-033188A” value is given as “twice” and the EC50 was 0.00068 µM. In series [2], the BA% is on record as 7.1% and the half-life was 4 h. Also, the CC50 at 48 h in series [3] came out at 48.3 µM.
For orientation: ED50 means the midpoint of the dose-response relation. On to `[2H][C@]1(N2[C@@H]3COCCN3C(=O)c3c(OCOC(=O)OC)c(=O)ccn32)c2ccccc2SCc2c1ccc(F)c2F` [1B], for which the BA% in series [2] was 18.4%. Also, in series [4], the ED50 is 0.41 mg/kg/day.
As for `[2H]C1([2H])Sc2ccccc2[C@@H](N2[C@@H]3COCCN3C(=O)c3c(O)c(=O)ccn32)c2ccc(F)c(F)c21` [2A], in series [2], the BA% was 5.0% and the half-life is 5 h.
As for `[2H]C1([2H])Sc2ccccc2[C@@H](N2[C@@H]3COCCN3C(=O)c3c(OCOC(=O)OC)c(=O)ccn32)c2ccc(F)c(F)c21` [2B], the BA% in series [2] is 15.9%. For the same compound, the ED50 in series [4] came to 0.71 mg/kg/day.
For `[2H]C1([2H])Sc2ccccc2[C@]([2H])(N2[C@@H]3COCCN3C(=O)c3c(O)c(=O)ccn32)c2ccc(F)c(F)c21` [3A], in series [1], the “CPE inhibitory effect compared with S-033188A” value is listed as “twice” and the EC50 turned out to be 0.0006 µM. Further, in series [2], the BA% was 7.8% and the half-life is 5.2 h.
Take `[2H]C1([2H])Sc2ccccc2[C@]([2H])(N2[C@@H]3COCCN3C(=O)c3c(OCOC(=O)OC)c(=O)ccn32)c2ccc(F)c(F)c21` [3B]: the BA% in series [2] is on record as 19.8%. The compound further yielded an ED50 in series [4] of 0.33 mg/kg/day.
In series [2], `O=C1c2c(O)c(=O)ccn2N([C@@H]2c3ccccc3SCc3c2ccc(F)c3F)[C@@H]2COCCN12` [S-033188A, reference compound] gave a BA% of 4.7% and a half-life of 3.8 h. In addition, half-maximal cytotoxicity in series [3] (CC50 at 48 h) was put at 29.9 µM.
As to `COC(=O)OCOc1c2n(ccc1=O)N([C@@H]1c3ccccc3SCc3c1ccc(F)c3F)[C@@H]1COCCN1C2=O` [S-033188B, reference compound], in series [2], the BA% came to 15.3%. In series [4], the ED50 amounted to 0.78 mg/kg/day.
